The source of these data is US20100087385A1 (priority 2006, published 2010).

Assay [1] deals with IBD mice (colon injury induced by acetic acid). Kind of assay: Experiment I: acetic acid induced IBD in mice, glycyrrhizin and glycyrrhetinic acid. As to conditions: glycyrrhizin 105 mg/kg, glycyrrhetinic acid 72 mg/kg; for Inflammatory score / CMDI / GSH / MPO / MDA / SOD: once per day, 10 days; for Inflammatory score: normal 0, model 7.50 ± 0.7; for CMDI: normal 0.73 ± 0.03, model 1.75 ± 0.35; for GSH / MPO / MDA / SOD: colon homogenate; for GSH: normal 0.58 ± 0.12, model 0.16 ± 0.09; for MPO: normal 3.37 ± 0.31, model 1.33 ± 0.83; for MDA: normal 10.58 ± 2.74, model 26.2 ± 5.5; for SOD: normal 707 ± 105, model 309 ± 68; for CMDI of IBD mice decreased / MPO activity increased / inflammatory scores were lowered: once per day for ten days. The format is in vivo, KuMing mice. How it is done: In Adis group, mice were provided Adis 600 mg/kg afer enema, once per day. Normal control and model groups were orally given with equal amount of normal saline daily. After seven days drug treatment, all mice except for normal control were stimulated with acetic acid to induce IBD. On day six, starvation was applied after drug treatment to all groups. On day seven, after drug treatment, mice were put to sleep with ether and the procedure of enema was performed before injecting 0.1 ml of 6% acitic acid using polyethylene tubings. Acitic acid was injected into mice through anus in depth about 1.5 cm to induce IBD. One minute after the actic acid injection, wash twice with normal saline and let the animals lay down and awake naturally. For normal control, mice were treated with equal amount of saline.
Drug treatment continued to day 10 to all groups. 24 hours after the last drug treatment, the mice were sacrificed. Take and weight the whole colon, score colon organ index, and evaluate CMDI. Colon tissues were homogenized in Tris buffer and adjusted to the concentration 5% for MPO, MDA, SOD, and GSH tests.
(§1) CMDI: Cut open the mouse along the mesentery and take the whole colon. Observe peritoneal adhesion, colon ulcer, and congestion. The standard of evaluation was listed on Table 1.
(§2) Myeloperoxidase (MPO): Carefully weight tissue samples, use Tris buffer (weight to volume ratio 1:19) to prepare 5% homogenization solution by high-speed homogenizer. Handle all steps on ice. Protein concentration was determined by method Lowry and use MPO test kit.
(§3) Lipid peroxidase (MDA): TBA was used to detect MDA in the homogenization solution
Superoxide dismutas (SOD): Method of pyrogallol was used to detect the activity of SOD in the homogenization solution
(§4) Glutathione (GSH): Follow the product insert coming with the test kit to detect GSH in the samples
The total score is combined with both parts of A with B.

Assay [2] shares this test system. The assay is described as follows: Experiment II: acetic acid induced IBD in mice, ammonium glycyrrhizinate. The format is in vivo, Kuming mice. As to conditions: for GSH / MPO / MDA / SOD: colon homogenate; for GSH / MPO / MDA / SOD / CMDI: once per day, 10 days; for GSH: normal 0.58 ± 0.12, model 0.16 ± 0.09; for MPO: normal 3.37 ± 0.31, model 1.33 ± 0.83; for MDA: normal 10.58 ± 2.74, model 26.2 ± 5.5; for SOD: normal 707 ± 105, model 309 ± 68; for CMDI: normal 0.73 ± 0.03, model 1.75 ± 0.35. How it is done:
Kuming mice were randomly distributed into seven groups consisting of normal control, model group, Adis positive control, monoammonium glycyrrhizinate oral administration, diammonium glycyrrhizinate oral administration, triammonium glycyrrhizinate oral administration, diammonium glycyrrhizinate injection. In Adis group, mice were provided Adis 600 mg/kg after enema, once a day. In glycyrrhizinate oral administration groups, 14 mg/kg dose of individual glycyrrhizinate was applied once per day. Normal control and model group were orally given by equal amount of normal saline daily. After seven days drug treatment, all mice except for normal control were stimulated with acetic acid to induce IBD. On day six, starvation was applied after drug treatment to all groups. On day seven, after drug treatment, mice were put to sleep with ether and the procedure of enema was performed before injecting 0.1 ml of 6% acitic acid using polyethylene tubings. Acitic acid was injected into mice through anus in depth about 1.5 cm to induce IBD. One minute after the actic acid injection, wash twice with normal saline and let the animals lie down and awake naturally. For normal control, mice were treated with equal amount of saline. Drug treatment continued to day 10 to all groups. 24 hours after the last drug treatment, the mice were sacrificed. Take and weight the whole colon, score colon organ index, and evaluate CMDI. Colon tissues were homogenized in Tris buffer and adjusted to the concentration 5% for MPO, MDA, SOD, and GSH tests.
as §1, §2, §3
Superoxide dismutase (SOD): Method of pyrogallol was used to detect the activity of SOD in the homogenization solution
as §4
The total score is combined with both parts of A and B.

Setting [3] is: injection (IP.) 14 mg/kg, once per day for ten days.
The mark [4] stands for this setting: oral 14 mg/kg, once per day for ten days.

For the compound `CC1(C)[C@@H](O[C@H]2O[C@H](C(=O)O)[C@@H](O)[C@H](O)[C@H]2O[C@@H]2O[C@H](C(=O)O)[C@@H](O)[C@H](O)[C@H]2O)CC[C@]2(C)[C@H]3C(=O)C=C4[C@@H]5C[C@@](C)(C(=O)O)CC[C@]5(C)CC[C@@]4(C)[C@]3(C)CC[C@@H]12` [Glycyrrhizin, glycyrrhizic acid], in assay [1] (IP injection), the Inflammatory score was 1.5 ± 0.41^ΔΔ, the CMDI is 0.88 ± 0.18^ΔΔ g/100 g, the GSH is given as 0.36 ± 0.09^ΔΔ mg/mgpro and the MPO is reported as 5.59 ± 0.94^ΔΔ U/mgpro. Further, in assay [1] (IP injection), the MDA was 5.08 ± 1.91^ΔΔ nmol/mgpro and the SOD is on record as 467 ± 49^ΔΔ U/mgpro. In assay [1] (IP injection, listed as glycyrrhizin), the Inflammatory score was found to be 1.5. In addition, in assay [1] (oral), the GSH is 0.33 ± 0.22^ΔΔ mg/mgpro, the MPO is reported as 5.09 ± 0.29^ΔΔ U/mgpro, the MDA is on record as 6.04 ± 0.89^ΔΔ nmol/mgpro and the SOD was 425 ± 12^ΔΔ U/mgpro. In addition, in assay [1] (oral), the “CMDI of IBD mice decreased” value stood at 82.3%, the MPO activity increased was found to be 2.83 ×, the “inflammatory scores were lowered” value came to 4 × and the Inflammatory score is listed as 1.5 ± 0.31^ΔΔ. The CMDI in assay [1] (oral) is given as 0.96 ± 0.03^ΔΔ g/100 g. Also, in assay [1] (injection (IP)), the “CMDI of IBD mice decreased” value worked out at 98.86%, the MPO activity increased is given as 3.20 × and the “inflammatory scores were lowered” value came to 4 ×. Besides, the Inflammatory score in assay [1] (oral, listed as glycyrrhizin) came to 1.5.

`CC1(C)[C@@H](O[C@H]2O[C@H](C(=O)O)[C@@H](O)[C@H](O)[C@H]2O[C@@H]2O[C@H](C(=O)O)[C@@H](O)[C@H](O)[C@H]2O)CC[C@]2(C)[C@H]3C(=O)C=C4[C@@H]5C[C@@](C)(C(=O)O)CC[C@]5(C)CC[C@@]4(C)[C@]3(C)CC[C@@H]12.N.N` [diammonium glycyrrhizinate]: in assay [2] (injection 14 mg/kg), the GSH is 0.27 ± 0.13^ΔΔ mg/mgpro, the MPO is listed as 3.55 ± 0.45^ΔΔ U/mgpro, the MDA is 7.85 ± 3.55^ΔΔ nmol/mgpro and the SOD was 533 ± 101^ΔΔ U/mgpro. The CMDI in assay [2] (injection 14 mg/kg) is on record as 0.97 ± 0.18^ΔΔ g/100 g. Besides, in assay [2] (oral 14 mg/kg), the GSH is 0.49 ± 0.14^ΔΔ mg/mgpro, the MPO is listed as 2.93 ± 0.26^ΔΔ U/mgpro, the MDA was 8.32 ± 5.04^ΔΔ nmol/mgpro and the SOD is listed as 505 ± 132^ΔΔ U/mgpro. Besides, the CMDI in assay [2] (oral 14 mg/kg) is 1.06 ± 0.31^ΔΔ g/100 g. In assay [2] (setting [3]), the “CMDI of IBD mice decreased” value is on record as 45.7%, the MPO activity increased is listed as 1.67 × and the “inflammatory score was lowered” value came out at 2.75 ×. In assay [2] (setting [4]), the “CMDI of IBD mice decreased” value turned out to be 39.4%, the MPO activity increased stood at 1.20 × and the “inflammatory scores were lowered” value was 1.73 ×.

With `CC1(C)C2CC[C@]3(C)C(C(=O)C=C4C5C[C@@](C)(C(=O)O)CC[C@]5(C)CCC43C)[C@@]2(C)CC[C@@H]1O` (some centres unmarked) [glycyrrhetinic acid], in assay [1] (IP injection), the CMDI is reported as 1.07 ± 0.28^ΔΔ g/100 g, the GSH is given as 0.31 ± 0.08^ΔΔ mg/mgpro, the MPO was 4.51 ± 0.35^ΔΔ U/mgpro and the MDA was 5.85 ± 1.33^ΔΔ nmol/mgpro. Besides, in assay [1] (oral), the GSH is 0.31 ± 0.08^ΔΔ mg/mgpro, the MPO is 3.48 ± 0.46^ΔΔ U/mgpro, the MDA is listed as 4.56 ± 2.28^ΔΔ nmol/mgpro and the “CMDI of IBD mice decreased” value was determined as 57.65%. Moreover, in assay [1] (oral), the MPO activity increased is 1.62 × and the CMDI is on record as 1.11 ± 0.41^ΔΔ g/100 g. Moreover, in assay [1] (injection (IP)), the “CMDI of IBD mice decreased” value is 63.55%, the MPO activity increased came out at 2.39 × and the “inflammatory scores were lowered” value came to 2.75 ×.

Consider `CC1(C)[C@@H](O[C@H]2O[C@H](C(=O)O)[C@@H](O)[C@H](O)[C@H]2O[C@@H]2O[C@H](C(=O)O)[C@@H](O)[C@H](O)[C@H]2O)CC[C@]2(C)[C@H]3C(=O)C=C4[C@@H]5C[C@@](C)(C(=O)O)CC[C@]5(C)CC[C@@]4(C)[C@]3(C)CC[C@@H]12.N` [monoammonium glycyrrhizinate], for which, in assay [2] (oral 14 mg/kg), the GSH is given as 0.32 ± 0.12^ΔΔ mg/mgpro, the MPO is 2.99 ± 0.26^ΔΔ U/mgpro, the MDA was 16.14 ± 5.81^ΔΔ nmol/mgpro and the SOD is recorded as 412 ± 112^ΔΔ U/mgpro. Besides, the CMDI in assay [2] (oral 14 mg/kg) is given as 1.50 ± 0.03^Δ g/100 g. Moreover, in assay [2] (setting [4]), the “CMDI of IBD mice decreased” value worked out at 14.3%, the MPO activity increased stood at 1.25 × and the “inflammatory scores were lowered” value is on record as 1.5 ×.

Turning to `CC1(C)[C@@H](O[C@H]2O[C@H](C(=O)O)[C@@H](O)[C@H](O)[C@H]2O[C@@H]2O[C@H](C(=O)O)[C@@H](O)[C@H](O)[C@H]2O)CC[C@]2(C)[C@H]3C(=O)C=C4[C@@H]5C[C@@](C)(C(=O)O)CC[C@]5(C)CC[C@@]4(C)[C@]3(C)CC[C@@H]12` [triammonium glycyrrhizinate], in assay [2] (oral 14 mg/kg), the GSH is on record as 0.26 ± 0.09^ΔΔ mg/mgpro, the MPO is 1.59 ± 0.94^ΔΔ U/mgpro, the MDA was 16.88 ± 5.97^ΔΔ nmol/mgpro and the SOD is reported as 368 ± 79^ΔΔ U/mgpro. Moreover, the CMDI in assay [2] (oral 14 mg/kg) is reported as 1.49 ± 0.08^ΔΔ g/100 g. In assay [2] (setting [4]), the “CMDI of IBD mice decreased” value is listed as 14.9%, the MPO activity increased is given as 0.20 × and the “inflammatory scores were lowered” value came out at 1.5 ×.
